# Patent EP4782431A1 (Suzhou Merna Therapeutics Co. Ltd, priority 2023, dated 2025)
# Key:
# THP-1 cells = test: m6A methylation level of THP-1 cells (LC-MS); type: cell-based; conditions: 24 hours
# Description: 1*10^8 THP-1 cells were seeded in culture dishes, into which 4 nM and 400 nM compound of formula (I), 4 nM and 4 µM nicotinamide, and 5 µM m6A methyltransferase inhibitor UZH2 were added, respectively. The cells were cultured in an incubator containing 5% CO2 at 37°C for 24 hours. After discarding culture media and washing with PBS, the cells were centrifuged, and the supernatant was discarded. 400 µL of an RLT cell lysis buffer was added, and the cells were stored at -80°C. A portion of samples were selected, into which 400 µL of 70% ethanol was added and evenly stirred. 700 µL of a sample was transferred to an RNeasy centrifugation column and centrifuged for 15 seconds (8,000 g, 25°C). Then, 700 µL of an RW1 buffer solution was added and centrifuged for 15 seconds (8,000 g, 25°C), followed by the addition of 500 µL of an RPE buffer solution and centrifugation for 16 seconds (8,000 g, 25°C). The above steps were repeated twice, followed by centrifugation for 2 minutes to completely remove the eluent. 30 µL of nuclease-free water was added to a chromatographic column, and the cells were incubated for 5 minutes and then centrifuged for 2 minutes (12,000 g, 25°C). The steps were repeated 3 times. 2 µL of an RNA sample was selected and dissolved in 98 µL of a 10 mM Tris buffer solution, and the absorbance at 260 nm was measured using a Nanodrop to determine the RNA concentration.
# 50 µg of total RNA was selected and dissolved in 100 µL of nuclease-free water. Oligo (dT) magnetic beads were resuspended, 50 µL of the magnetic beads were transferred to a 1.5 mL test tube, 500 µL of a binding buffer solution was added, the mixture was allowed to stand, and the supernatant was removed. 100 µL of an RNA sample was added to 200 µL of a magnetic bead suspension for mixing, the mixture was stirred and incubated in a Thermomixer at 25°C for 5 minutes, the supernatant was discarded, and then 200 µL of a washing buffer solution was added. The steps were repeated 2 times, and then centrifugation was performed for 10 seconds (2,000 g, 25°C). 50 µL of an elution buffer solution was added and evenly mixed, the mixture was heated to 75°C, the supernatant was transferred to a new 1.5 mL test tube and purified using an RNA Clean & Concentrator kit, and the RNA concentration was determined.
# 20 µL (approximately 200 ng) of an mRNA sample and 20 µL of a Nuclease P1 digestion premix (including 0.5 µL of 2 unit/µL Nuclease P1, 0.4 µL of 5 M NaCl, 2 µL of 0.1 M ZnCl2, and 17.1 µL of PCR-grade water) were added into each test tube, and the mixture was stirred and incubated in a Thermomixer at 37°C for 2 hours. […] 20 µL of the supernatant was collected, an m6A methylation fragment was analyzed by LC-MS, and the m6A inhibition rate was calculated. […]
# [1] = system: keratinocyte differentiation markers KRT1, KRT10, Loricrin, and Involucrin; test: inhibition of HBEGF-induced differentiation of HaCaT keratinocytes (RT-PCR); type: cell-based; conditions: with 2.5 ng/mL recombinant human HBEGF protein, 24 hours
# Description: Human HaCaT keratinocytes were cultured in DMEM culture medium containing 10% fetal bovine serum, 100 U/mL penicillin, and 100 µg/mL streptomycin. The cells were seeded into a 96-well plate at a density of […] and placed in an incubator containing 5% carbon dioxide for culture at 37°C for 24 hours. An equal volume of DMSO was added into control well 1, a 2.5 ng/mL recombinant human HBEGF protein (Abcam, ab205523) was added into control well 2, and a 2.5 ng/mL recombinant human HBEGF protein and corresponding concentrations of test compounds were added into sample wells. The cells were continuously cultured for 24 hours, washed with PBS, and then collected by high-speed centrifugation. Total RNA was extracted using Trizol reagent (Sigma Aldrich). 1 µg of RNA was reverse-transcribed into cDNA using a cDNA reverse transcription kit (Transgene Biotech, AT311-03). 1.25 µL of a primer (with a primer sequence shown in Table 2), 10 µL of an iTag Universal SYBR Green supermix (Bio-Rad, 172-5125), and an appropriate amount of DEPC ultrapure water were added to formulate 20 µL of a reaction solution to perform an RT-PCR reaction. Upon completion of the reaction, the reaction solution was subjected to agarose gel electrophoresis to determine the mRNA expression level of keratinocyte differentiation markers KRT1, KRT10, Loricrin, and Involucrin. […]
# HaCaT cells = test: m6A methylation level of drug-treated HaCaT keratinocytes by nanopore sequencing; type: cell-based, human; conditions: 50 nM drug, 24 hours, vs blank control group
# Description: 1*10^8 HaCaT cells were seeded in culture dishes, into which 50 nM drugs (including sorafenib, capecitabine, docetaxel, and osimertinib) were added, respectively. The cells were cultured in an incubator containing 5% CO2 at 37°C for 24 hours and washed with PBS after culture media were removed. Centrifugation was performed, the supernatant was discarded, and then, 400 µL of an RLT cell lysis buffer (QIAGEN, Cat.#79216) was added. A portion of samples were selected, into which 400 µL of 70% ethanol was added. The mixture was evenly stirred and then transferred to an RNeasy mini column, and RNA was extracted using an RNeasy mini kit (QIAGEN, Cat.#74104). 2 µL of an RNA sample was selected and dissolved in 98 µL of a 10 mM Tris-HCl buffer solution, and the absorbance at 260 nm was measured using a Nanodrop (Thermo Fisher Scientific) to determine the RNA concentration.
# 40 µg of an RNA sample was selected for enrichment of mRNA (PolyA+RNA) using an NEBNext Poly(A) mRNA magnetic isolation module (NEB, Cat.#E7490), and then, a 3' end of the above enriched mRNA (PolyA+RNA) molecule was ligated with reverse transcription adapter RTA using a direct RNA sequencing kit (Oxford Nanopore Technologies, Cat.#SQK-RNA002). A reverse transcription reaction was performed with the mRNA (PolyA+RNA) molecule as a template to synthesize a complementary strand, a terminal end of the reverse transcription adapter RTA was ligated with a sequencing adapter (RNA adapter) to form a final sequencing library, and quantitative detection was performed using a Qubit™ dsDNA HS assay kit (Invitrogen, Cat.#LOT2133187).
# After quality inspection of the library, the prepared sequencing library was loaded onto a PromethION flow cell chip (Oxford Nanopore Technologies, Cat.#FLO-MIN106D), and placed in a PromethION sequencer (Oxford Nanopore Technologies) for sequencing by selecting a matched sequencing mode. Basecalling was performed on sequencing data through guppy, and m6A methylation analysis was performed on original fast5 data.
structure (smiles),measurement,setting,value
"NC(=O)[C@H]1CCCc2c1[nH]c1ccc(Cl)cc21 [Compound of formula (I), (S)-6-chloro-2,3,4,9-tetrahydro-1H-carbazole-carboxamide]",m6A methylation level of mRNA of the cells,"THP-1 cells; 4 nM and 400 nM, concentration-dependent",significantly inhibit
same,m6A inhibition activity,THP-1 cells; 400 nM,comparable to that of the m6A methyltransferase inhibitor UZH2 at a concentration of 5 µM
same,"mRNA expression level of the HaCaT differentiation markers KRT1, KRT10, Loricrin, and Involucrin",[1],significantly inhibited
"NC(=O)c1cccnc1 [Nicotinamide, nicotinamide]",inhibitory effect on the m6A methylation level of mRNA of the cells,THP-1 cells; high concentration (4 µM),no inhibitory effect
same,inhibitory effect on the m6A methylation level of mRNA of the cells,THP-1 cells; low concentration (4 nM),no inhibitory effect
"C=CC(=O)Nc1cc(Nc2nccc(-c3cn(C)c4ccccc34)n2)c(OC)cc1N(C)CCN(C)C [Osimertinib, osimertinib]",m6A methylation levels of HaCaT cells higher than that of the control group,HaCaT cells,5.13 fold
"CNC(=O)c1cc(Oc2ccc(NC(=O)Nc3ccc(Cl)c(C(F)(F)F)c3)cc2)ccn1 [Sorafenib, sorafenib]",m6A methylation levels of HaCaT cells higher than that of the control group,HaCaT cells,5.05 fold
